Results from patent US20100040568A1, “Steroidal compounds as melanogenesis modifiers and uses thereof” (SkinMedica, Inc., priority 2008, published 2010).

Columns and labels:
MEL-A = experiment: MTT cell viability of treated MelanoDerm tissue; format: cell-based, human; details: 0.036% topical
Protocol: Conessine and Licorice extract were dissolved in 30% ethanol: 70% propylene glycol (PEG) to a final concentration of 0.036% (0.36 mg/ml). A 25 μl aliquot of each compound was applied topically to the Asian MelanoDerm™ tissue (MEL-A) on Days 0, 1, 3, 6, 8, 10 and 13. The MelanoDerm™ tissues were fed every other day with 5 ml fresh NMM-113. Prior to each application, the tissues were washed with 1 ml PBS to remove any residual test compound. Tissues were fixed on Days 13 and 16 for microscopic analysis and histological evaluation. In addition, duplicate tissues were frozen on Days 13 and 16 for melanin assay. 30% ethanol: 70% PEG was used as negative control. Cell viability was measured in accordance with the manufacturer's instructions using the MTT assay kit (MatTek Corp., Ashland, Mass. 01721). One MEL-A tissue from each condition was harvested on day 2 and 7, and MTT assay was performed.

melan-a cells = experiment: Melanin assay in cultured murine melanocytes (melan-a); format: cell-based; details: 72 hours
Protocol: The Spectrum Collection library consisting of 2000 drug compounds or natural products was screened to identify novel pigmentation inhibitors or stimulators in cultured murine melanocytes (melan-a). Compounds were dissolved in dimethylsulfoxide (DMSO) to a final concentration of 10 mM. Screening was performed with cultured melanocytes in 24-well plates followed by melanin assay (see below). A minimum change of 50% in melanin formation was established as significant for a pigmentation inhibitor or stimulator. DMSO was used as a negative control and the widely used depigmenting agent, hydroquinone, was used as a positive control on every plate. […] Melan-a cells were plated at 5×10^4 cells per well in 1 ml of culture media in 24-well plates the day before adding the library compounds. All compounds were added at the indicated final concentrations. Cells were harvested after 72 hours of incubation, and melanin assay was performed. For the primary and secondary screening, cells were harvested and dissolved in 200 μl of 2N NaOH in 20% DMSO at 70° C. A 180-μl aliquot of the resulting solution was measured for absorbance at 490 nm. Cells are harvested in extraction buffer (1% Triton X-100, 50 mM Tris, 2 mM EDTA, 150 mM NaCl, pH 7.5) containing a complete protease inhibitor cocktail (Roche). The lysates were centrifuged at 14,000 rpm for 10 minutes at 4° C. BCA protein assay kit (Pierce) was used to measure the protein concentrations of the supernatants, and bovine serum albumin was used as a standard. […] A 180-μl aliquot of the resulting solution was measured for absorbance at 490 nm. The melanin contents were normalized to the total amount of protein. The IC50 value for inhibition of cellular melanin synthesis for conessine was determined by culturing melan-a cells with various concentrations of conessine for 72 hours. Briefly, melan-a cells were plated at 5×10^4 cells per well in 1 ml of culture media in 24-well plates the day before adding conessine. Conessine was added at the indicated final concentrations. DMSO was used as a negative control. Cells were harvested after 72 hours of incubation, and spectrophotometric melanin assay was performed on cell pellets. The melanin contents were normalized to the total amount of protein. Cell viability was determined by using the CellTiter 96 aqueous nonradioactive cell proliferation assay. […] Licorice extract was tested under similar conditions as conessine for its ability to decrease melanin synthesis in melan-a cells (FIG. 11c). Melan-a cells were plated at 5×10^4 cells per well in 1 ml of culture media in 24-well plates the day before adding Licorice extract. 70% ethanol was used as control and the Licorice extract was diluted in cell culture media at the indicated concentrations. […] Cells were harvested after 72 hours of incubation, and spectrophotometric melanin assay was performed on cell pellets. The melanin contents were normalized to the total amount of protein. Cell viability was determined by using the CellTiter 96 aqueous nonradioactive cell proliferation assay.

[1] = test system: Tyrosinase gene family proteins; experiment: Immunoblot of tyrosinase gene family proteins in melan-a cells; format: cell-based, murine; details: various concentrations, 72 hours
Protocol: Melan-a cells were incubated with various concentrations of conessine for 72 hours. Cell lysates were prepared and separated by 7.5% sodium dodecyl sulfate-polyacrylamide gel and transferred to Immobilon-P membranes. Tyrosinase gene family proteins were detected with antibodies against each protein.

[2] = test system: Lamp-1 (lysome-associated membrane protein 1); experiment: Level of Lamp-1 in melan-a cells; format: cell-based, murine
Protocol: Melan-a cells were incubated with various concentrations of conessine for 72 hours. Cell lysates were prepared and separated by 7.5% sodium dodecyl sulfate-polyacrylamide gel and transferred to Immobilon-P membranes. Tyrosinase gene family proteins were detected with antibodies against each protein. […] The effect of conessine on the level of Lamp-1 in melan-a cells was examined. A common lineage among the melanosomes and lysosomes is well accepted. Lamp-1 (lysome-associated membrane protein 1) is a lysosome marker. […] Thus, conessine treatment likely results in decreased degradation of both Lamp-1 and tyrosinase gene family proteins (FIG. 12d), thus unexpectedly acting as a melanogenesis […].

CC1C2CCC3C4CC=C5CC(N(C)C)CCC5(C)C4CCC32CN1C (stereo not shown) [Compound 1, Conessine]
cytotoxicity of treated tissue (MEL-A): no detectable cytotoxicity | effect on melanin synthesis in melan-a cells (melan-a cells; indicated concentrations): significantly inhibited melanogenesis in a dose-dependent manner | IC50 (melan-a cells; Mus musculus, melan-a cells, melanin normalized to protein, read-out: IC50 value for inhibition of cellular melanin synthesis): ~2500 nM | % of control remaining @ 1 μM (melan-a cells; melanin, melan-a cells, 1 μM): 73.3 % of control | % of control remaining @ 5 μM (melan-a cells; melanin, melan-a cells, 5 μM): 32.2 % of control | cellular levels of tyrosinase family proteins [1]: increases cellular levels of tyrosinase family proteins in a dose-dependent manner | cellular level of Lamp-1 [2]: increases cellular level of Lamp-1
